In US8846909B2, “Bicyclic heteroaryl kinase inhibitors and methods of use” (University of Rochester, priority 2010, dated 2014):

Each molecule was assayed against T1, MLK3 (Homo sapiens, UniProt Q16584) (assay: Radiometric filter plate MLK3 assay). Details: read-out: MK3 IC50.
T1 construct: purchased Dundee DU8313
Type: biochemical
Experimental: After a twenty minute incubation, the reactions were washed through filter plates and read on a scintillation counter. Results are shown in Table 10 below, in which +++ indicates ≦0.1 μM, ++ indicates >0.1 μM and ≦1 μM, and + indicates >1 μM.
Also: 2 µM cold ATP (Km).

T1 sequence (Q16584 whole entry): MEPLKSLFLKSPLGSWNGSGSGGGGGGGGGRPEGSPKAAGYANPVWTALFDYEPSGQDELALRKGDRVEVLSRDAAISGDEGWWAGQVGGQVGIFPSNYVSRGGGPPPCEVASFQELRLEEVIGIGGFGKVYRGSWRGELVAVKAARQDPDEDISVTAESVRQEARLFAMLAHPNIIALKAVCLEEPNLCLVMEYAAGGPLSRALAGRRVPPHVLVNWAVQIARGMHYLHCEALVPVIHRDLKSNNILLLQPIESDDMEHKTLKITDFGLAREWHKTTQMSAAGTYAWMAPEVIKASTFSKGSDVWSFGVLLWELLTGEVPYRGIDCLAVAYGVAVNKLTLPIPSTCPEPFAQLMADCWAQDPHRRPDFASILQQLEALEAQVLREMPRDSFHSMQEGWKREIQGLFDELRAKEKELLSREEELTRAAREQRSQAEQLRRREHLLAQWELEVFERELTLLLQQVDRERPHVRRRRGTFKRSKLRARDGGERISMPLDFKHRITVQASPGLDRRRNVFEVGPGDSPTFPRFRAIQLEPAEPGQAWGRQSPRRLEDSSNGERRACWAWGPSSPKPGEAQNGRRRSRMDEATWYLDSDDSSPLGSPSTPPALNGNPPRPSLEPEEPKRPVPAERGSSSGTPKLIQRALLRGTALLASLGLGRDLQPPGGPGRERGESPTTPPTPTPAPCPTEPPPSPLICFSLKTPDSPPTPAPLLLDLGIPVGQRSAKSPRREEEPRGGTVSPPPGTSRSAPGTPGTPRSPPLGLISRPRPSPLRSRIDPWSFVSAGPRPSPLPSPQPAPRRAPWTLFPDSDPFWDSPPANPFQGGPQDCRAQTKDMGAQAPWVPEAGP

With `COc1cc(-c2cnc3[nH]cc(-c4ccc(C(N)=O)cc4)c3c2)cc(OC)c1OC` [Example 25, 4-(5-(3,4,5-trimethoxyphenyl)-1H-pyrrolo[2,3-b]pyridin-3-yl)benzamide] as the molecule, how does the IC50 read?
Its IC50 is less than 0.1 µM.

`COc1cc(OC)c(-c2cnc3[nH]c(=O)n(C4CCCC4)c3n2)c(OC)c1` [Example 94, 1-cyclopentyl-6-(2,4,6-trimethoxyphenyl)-1H-imidazo[4,5-b]pyrazin-2(3H)-one] was tested. Which IC50 did it give?
The IC50 was greater than 1 µM.

How did the IC50 turn out when `O=c1[nH]c2ncc(-c3ccc(O)cc3)nc2n1-c1ccc2cn[nH]c2c1` [Example 92, 6-(4-hydroxyphenyl)-1-(1H-indazol-6-yl)-1H-imidazo[4,5-b]pyrazin-2(3H)-one] was run?
Its IC50 is greater than 1 µM.

How did the IC50 turn out when `CN1CCN(Cc2ccc(-c3cnc4[nH]cc(-c5ccc6[nH]ccc6c5)c4c3)cc2)CC1=O` [Example 141, 4-{4-[3-(1H-indol-5-yl)-1H-pyrrolo[2,3-b]pyridin-5-yl]-benzyl}-1-methyl-piperazin-2-one] was run?
Its IC50 is less than 0.1 µM.

`COc1cc(-c2cnc3c(c2)C(=Cc2ccncc2)C(=O)N3)cc(OC)c1OC` (single isomer, unassigned) [Example 129, (E)- and (Z)-3-pyridin-4-ylmethylene-5-(3,4,5-trimethoxy-phenyl)-1,3-dihydro-pyrrolo[2,3-b]pyridin-2-one] was tested. Which IC50 did it give?
The IC50 was greater than 1 µM.

How did the IC50 turn out when `COc1cc(-c2cnc3[nH]c(=O)n(-c4ccc5cc[nH]c5c4)c3n2)cc(OC)c1OC` [Example 113, 1-(1H-indol-6-yl)-6-(3,4,5-trimethoxyphenyl)-1H-imidazo[4,5-b]pyrazin-2(3H)-one] was run?
Its IC50 is less than 0.1 µM.

With `CN1CCN(Cc2ccc(-c3cnc4[nH]cc(-c5ccc6ncccc6c5)c4c3)cc2)CC1` [Example 203] as the molecule, how does the IC50 read?
Its IC50 is less than 0.1 µM.

Which IC50 does the source give for `COc1cc(-c2cnc3c(c2)C(Cc2ccc(C(N)=O)cc2)C(=O)N3)cc(OC)c1OC` (centres unmarked) [Example 138, 4-[2-oxo-5-(3,4,5-trimethoxy-phenyl)-2,3-dihydro-1H-pyrrolo[2,3-b]pyridin-3-ylmethyl]-benzamide] here?
Its IC50 is greater than 1 µM.

How did the IC50 turn out when `COc1ccc(-n2c(=O)[nH]c3ncc(-c4ccncc4)nc32)cc1` [Example 71, 1-(4-methoxyphenyl)-6-(pyridin-4-yl)-1H-imidazo[4,5-b]pyrazin-2(3H)-one] was run?
Its IC50 is greater than 1 µM.

`COc1cc(-c2cnc3[nH]c(=S)n(CC4CC4)c3n2)cc(OC)c1OC` [Example 127, 1-(cyclopropylmethyl)-6-(3,4,5-trimethoxyphenyl)-1H-imidazo[4,5-b]pyrazine-2(3H)-thione] was tested. Which IC50 did it give?
The IC50 was greater than 1 µM.

Which IC50 does the source give for `CC(=O)N1CCN(Cc2ccc(-c3cnc4[nH]cc(-c5ccc(C(N)=O)cc5)c4c3)cc2)CC1` [Example 157, 4-{5-[4-(4-acetyl-piperazin-1-ylmethyl)-phenyl]-1H-pyrrolo[2,3-b]pyridin-3-yl}-benzamide] here?
The IC50 was less than 0.1 µM.

For `COc1cc(-c2cnc3[nH]cc(-c4ccc5[nH]ccc5c4)c3n2)ccc1OCCN1CCOCC1` [Example 39, 4-(2-(4-(7-(1H-indol-5-yl)-5H-pyrrolo[3,2-b]pyrazin-2-yl)-2-methoxyphenoxy)ethyl)morpholine], which IC50 is on record?
The IC50 was less than 0.1 µM.

With `COc1cc(OC)cc(-c2cnc3[nH]c(=O)n(-c4ccc5[nH]ccc5c4)c3n2)c1` [Example 65, 6-(3,5-dimethoxyphenyl)-1-(1H-indol-5-yl)-1H-imidazo[4,5-b]pyrazin-2(3H)-one] as the molecule, how does the IC50 read?
The IC50 was greater than 1 µM.

Which IC50 does the source give for `COc1cc(-c2cnc3[nH]c(=O)n(C4CCc5ccccc54)c3n2)cc(OC)c1OC` (centres unmarked) [Example 101, 1-(2,3-dihydro-1H-inden-1-yl)-6-(3,4,5-trimethoxyphenyl)-1H-imidazo[4,5-b]pyrazin-2(3H)-one] here?
The IC50 was greater than 1 µM.

For `COc1cc(-c2cnc3[nH]c(=O)n(-c4ccc5[nH]ccc5c4)c3n2)cc(OC)c1OC` [Example 40, 1-(1H-indol-5-yl)-6-(3,4,5-trimethoxyphenyl)-1H-imidazo[4,5-b]pyrazin-2(3H)-one], which IC50 is on record?
The IC50 was less than 0.1 µM.

For `O=c1[nH]c2ncc(-c3cc(Cl)cc(Cl)c3)nc2n1-c1ccc2[nH]ccc2c1` [Example 48, 6-(3,5-dichlorophenyl)-1-(1H-indol-5-yl)-1H-imidazo[4,5-b]pyrazin-2(3H)-one], which IC50 is on record?
The IC50 was greater than 1 µM.

`O=C1CN(Cc2ccc(-c3cnc4[nH]cc(-c5ccc6[nH]ccc6c5)c4c3)cc2)CCN1` [Example 142, 4-{4-[3-(1H-indol-5-yl)-1H-pyrrolo[2,3-b]pyridin-5-yl]-benzyl}-piperazin-2-one] was tested. Which IC50 did it give?
Its IC50 is less than 0.1 µM.

How did the IC50 turn out when `CN(C)Cc1ccc(-c2cnc3[nH]cc(-c4ccc5[nH]ccc5c4)c3c2)cc1` [Example 33, 1-(4-(3-(1H-indol-5-yl)-1H-pyrrolo[2,3-b]pyridin-5-yl)phenyl)-N,N-dimethylmethanamine] was run?
Its IC50 is less than 0.1 µM.

How did the IC50 turn out when `O=c1[nH]c2ncc(-c3ccncc3)nc2n1CC1CC1` [Example 82, 1-(cyclopropylmethyl)-6-(pyridin-4-yl)-1H-imidazo[4,5-b]pyrazin-2(3H)-one] was run?
The IC50 was greater than 1 µM.

For `CN1CCN(Cc2ccc(-c3cnc4[nH]cc(-c5ccc6nccc(O)c6c5)c4c3)cc2)CC1` [Example 200], which IC50 is on record?
Its IC50 is less than 0.1 µM.

How did the IC50 turn out when `Cc1cc2cc(-n3c(=O)[nH]c4ncc(-c5ccncc5)nc43)ccc2[nH]1` [Example 85, 1-(2-methyl-1H-indol-5-yl)-6-(pyridin-4-yl)-1H-imidazo[4,5-b]pyrazin-2(3H)-one] was run?
The IC50 was greater than 1 µM.

How did the IC50 turn out when `COCCC(=O)N1CCN(Cc2ccc(-c3cnc4[nH]cc(-c5ccc6[nH]ccc6c5)c4c3)cc2)CC1` [Example 192] was run?
Its IC50 is less than 0.1 µM.

Which IC50 does the source give for `COc1cc(-c2cnc3c(c2)C(=Cc2cccc(C#N)c2)C(=O)N3)cc(OC)c1OC` (mixture of isomers) [Example 134, 3-[2-oxo-5-(3,4,5-trimethoxy-phenyl)-1,2-dihydro-pyrrolo[2,3-b]pyridin-3-ylidenemethyl]-benzonitrile] here?
The IC50 was greater than 1 µM.

With `O=c1[nH]c2ncc(-c3ccc(N4CCOCC4)cc3)nc2n1-c1ccc2scnc2c1` [Example 100, 1-(benzo[d]thiazol-5-yl)-6-(4-morpholinophenyl)-1H-imidazo[4,5-b]pyrazin-2(3H)-one] as the molecule, how does the IC50 read?
The IC50 was greater than 1 µM.

With `CN1CCN(Cc2ccc(-c3cnc4[nH]cc(-c5ccc(C(N)=O)cc5)c4c3)cc2)CC1=O` [Example 158, 4-{5-[4-(4-methyl-3-oxo-piperazin-1-ylmethyl)-phenyl]-1H-pyrrolo[2,3-b]pyridin-3-yl}-benzamide] as the molecule, how does the IC50 read?
Its IC50 is less than 0.1 µM.

How did the IC50 turn out when `COc1cc(-c2cnc3c(c2)C(=Cc2ccc(C(N)=O)cc2)C(=O)N3)cc(OC)c1OC` [Example 131, 4-[2-oxo-5-(3,4,5-trimethoxy-phenyl)-1,2-dihydro-pyrrolo[2,3-b]pyridin-3-ylidenemethyl]-benzamide] was run?
The IC50 was 0.1 to 1 µM.

Which IC50 does the source give for `O=c1[nH]c2ncc(-c3ccncc3)nc2n1-c1ccc2scnc2c1` [Example 98, 1-(benzo[d]thiazol-5-yl)-6-(pyridin-4-yl)-1H-imidazo[4,5-b]pyrazin-2(3H)-one] here?
Its IC50 is greater than 1 µM.

How did the IC50 turn out when `COc1cc(-c2cnc3[nH]c(=O)n(-c4ccc5[nH]ccc5c4)c3n2)ccc1O` [Example 55, 6-(4-hydroxy-3-methoxyphenyl)-1-(1H-indol-5-yl)-1H-imidazo[4,5-b]pyrazin-2(3H)-one] was run?
The IC50 was less than 0.1 µM.

With `O=c1[nH]c2ncc(-c3ccc(N4CCOCC4)cc3)nc2n1CC1CC1` [Example 86, 1-(cyclopropylmethyl)-6-(4-morpholinophenyl)-1H-imidazo[4,5-b]pyrazin-2(3H)-one] as the molecule, how does the IC50 read?
Its IC50 is greater than 1 µM.

`COc1cc(-c2cnc3[nH]c(=O)n(-c4ccc5[nH]ccc5c4)c3c2)cc(OC)c1OC` [Example 124, 1-(1H-indol-5-yl)-6-(3,4,5-trimethoxyphenyl)-1H-imidazo[4,5-b]pyridin-2(3H)-one] was tested. Which IC50 did it give?
Its IC50 is 0.1 to 1 µM.

Which IC50 does the source give for `c1cn(Cc2ccc(-c3cnc4[nH]cc(-c5ccc6[nH]ccc6c5)c4c3)cc2)cn1` [Example 199, 5-(4-((1H-imidazol-1-yl)methyl)phenyl)-3-(1H-indol-5-yl)-1H-pyrrolo[2,3-b]pyridine] here?
The IC50 was less than 0.1 µM.

`COc1cc(-c2cnc3[nH]cc(-c4ccc5[nH]ccc5c4)c3c2)ccc1OCCN(C)C` [Example 35, 2-(4-(3-(1H-indol-5-yl)-1H-pyrrolo[2,3-b]pyridin-5-yl)-2-methoxyphenoxy)-N,N-dimethylethanamine] was tested. Which IC50 did it give?
Its IC50 is greater than 1 µM.

For `COc1ccc(-c2cnc3[nH]c(=O)n(-c4ccc5[nH]ncc5c4)c3n2)cc1OC` [Example 87, 6-(3,4-dimethoxyphenyl)-1-(1H-indazol-5-yl)-1H-imidazo[4,5-b]pyrazin-2(3H)-one], which IC50 is on record?
Its IC50 is greater than 1 µM.

For `COc1cc(-c2cnc3[nH]c(=O)n(-c4ccc5[nH]ccc5c4)c3n2)ccc1N` [Example 60, 6-(4-amino-3-methoxyphenyl)-1-(1H-indol-5-yl)-1H-imidazo[4,5-b]pyrazin-2(3H)-one], which IC50 is on record?
Its IC50 is less than 0.1 µM.

For `CCOC(=O)N1CCN(Cc2ccc(-c3cnc4[nH]cc(-c5ccc6[nH]ccc6c5)c4c3)cc2)CC1` [Example 183], which IC50 is on record?
Its IC50 is less than 0.1 µM.

Which IC50 does the source give for `COc1cc(-c2cnc3c(c2)C(Cc2cccnc2)C(=O)N3)cc(OC)c1OC` (centres unmarked) [Example 135, 3-pyridin-3-ylmethyl-5-(3,4,5-trimethoxy-phenyl)-1,3-dihydro-pyrrolo[2,3-b]pyridin-2-one] here?
Its IC50 is greater than 1 µM.

Which IC50 does the source give for `O=c1[nH]c2ncc(-c3ccc4cc[nH]c4c3)nc2n1-c1ccc2[nH]ccc2c1` [Example 56, 1-(1H-indol-5-yl)-6-(1H-indol-6-yl)-1H-imidazo[4,5-b]pyrazin-2(3H)-one] here?
The IC50 was greater than 1 µM.

How did the IC50 turn out when `Nc1ccc(-c2cnc3[nH]cc(-c4ccc(F)c(Cl)c4)c3c2)cn1` [Example 29, 5-(3-(3-chloro-4-fluorophenyl)-1H-pyrrolo[2,3-b]pyridin-5-yl)pyridin-2-amine] was run?
Its IC50 is greater than 1 µM.

`Cc1cc(C)cc(-c2cnc3[nH]c(=O)n(-c4ccc5cn[nH]c5c4)c3n2)c1` [Example 95, 6-(3,5-dimethylphenyl)-1-(1H-indazol-6-yl)-1H-imidazo[4,5-b]pyrazin-2(3H)-one] was tested. Which IC50 did it give?
The IC50 was greater than 1 µM.

`Cc1cc2cc(-n3c(=O)[nH]c4ncc(-c5cc(Cl)cc(Cl)c5)nc43)ccc2[nH]1` [Example 73, 6-(3,5-dichlorophenyl)-1-(2-methyl-1H-indol-5-yl)-1H-imidazo[4,5-b]pyrazin-2(3H)-one] was tested. Which IC50 did it give?
The IC50 was greater than 1 µM.

For `CN1CCN(Cc2ccc(-c3c[nH]c4ncc(-c5ccc(C(N)=O)cc5)cc34)cc2)CC1` [Example 162, 4-{3-[4-(4-methyl-piperazin-1-ylmethyl)-phenyl]-1H-pyrrolo[2,3-b]pyridin-5-yl}-benzamide], which IC50 is on record?
The IC50 was less than 0.1 µM.
